Here are results for 2 compounds from ChEMBL document CHEMBL3751819, “Navigating into the chemical space between MGCD0103 and SAHA: novel histone deacetylase inhibitors as a promising lead” (Medchemcomm, 2015).

Active and inactive are the calls of the source. No cut-off for these calls is given here.

For one data set, the system named is A549. The experiment in a line: Antiproliferative activity against human A549 cells assessed as reduction in cell viability after 48 hrs by MTT assay. It is filed as functional, cell-based. The conditions noted are these: A549, 48 h. In general terms: Tetrazolium dyes change colour on reduction, which living cells bring about.
The test system of data set [1] is HeLa. Briefly: Antiproliferative activity against human HeLa cells assessed as reduction in cell viability after 24 hrs by MTT assay. It is filed as functional, cell-based.
The subject of data set [2] is HeLa. The experiment in a line: Antiproliferative activity against human HeLa cells assessed as reduction in cell viability after 48 hrs by MTT assay. It is filed as functional, cell-based.
The test system of data set [3] is HeLa. Briefly: Antiproliferative activity against human HeLa cells assessed as reduction in cell viability after 72 hrs by MTT assay. It is filed as functional, cell-based.
The test system of a further data set is HepG2. The experiment in a line: Antiproliferative activity against human HepG2 cells assessed as reduction in cell viability after 48 hrs by MTT assay. The conditions noted are these: HepG2, 48 h. It counts as functional, cell-based.
The nature of data set [4]: Antiproliferative activity against human HCT116 cells assessed as reduction in cell viability after 24 hrs by MTT assay. It counts as functional, cell-based. The conditions noted are these: HCT-116, 24 h.
The nature of data set [5]: Antiproliferative activity against human HCT116 cells assessed as reduction in cell viability after 72 hrs by MTT assay. The conditions noted are these: HCT-116, 72 h. It counts as functional, cell-based.
A further data set relates to MCF7. The experiment in a line: Antiproliferative activity against human MCF7 cells assessed as reduction in cell viability after 24 hrs by MTT assay. The conditions noted are these: MCF7, 24 h. It is filed as functional, cell-based.
Data set [6] has as its system HeLa. Briefly: Induction of apoptosis in human HeLa cells assessed as viable cells at 1.25 uM after 48 hrs by annexin-V-FITC/propidium iodide staining based flow cytometry (reference value: 88.6%). It counts as functional. The conditions noted are these: Homo sapiens, HeLa, 48 h; read-out: Activity. In general terms: Flow cytometry measures light scatter and fluorescence of single cells or particles in a stream.

In data set [7] the test system is HeLa. Briefly: Induction of apoptosis in human HeLa cells assessed as early apoptotic cells at 1.25 uM after 48 hrs by annexin-V-FITC/propidium iodide staining based flow cytometry (reference value: 1.4%). It counts as functional.
For data set [8], the system named is HeLa. Briefly: Induction of apoptosis in human HeLa cells assessed as early apoptotic cells at 2.5 uM after 48 hrs by annexin-V-FITC/propidium iodide staining based flow cytometry (reference value: 1.4%). It is filed as functional.
Data set [9] concerns HeLa. Briefly: Induction of apoptosis in human HeLa cells assessed as viable cells at 5 uM after 48 hrs by annexin-V-FITC/propidium iodide staining based flow cytometry (reference value: 88.6%). The conditions noted are these: Homo sapiens, HeLa, 48 h; read-out: Activity. It is filed as functional.
Data set [10] relates to HeLa. Briefly: Induction of apoptosis in human HeLa cells assessed as early apoptotic cells at 5 uM after 48 hrs by annexin-V-FITC/propidium iodide staining based flow cytometry (reference value: 1.4%). It is filed as functional.
Data set [11] concerns HeLa. Briefly: Induction of apoptosis in human HeLa cells assessed as necrotic cells at 5 uM after 48 hrs by annexin-V-FITC/propidium iodide staining based flow cytometry (reference value: 0.693%). It counts as functional.
For data set [12], the system named is HeLa. The experiment in a line: Induction of cell cycle arrest in human HeLa cells assessed as accumulation at G0/G1 phase at 2 uM after 24 hrs by propidium iodide staining based flow cytometry (reference value: 0.5 to 0.52%). It counts as functional.
In data set [13] the test system is HeLa. The experiment in a line: Induction of cell cycle arrest in human HeLa cells assessed as accumulation at G0/G1 phase at 0.5 uM after 24 hrs by propidium iodide staining based flow cytometry (reference value: 0.5 to 0.52%). It is filed as functional.
For data set [14], the system named is HeLa. Briefly: Induction of cell cycle arrest in human HeLa cells assessed as accumulation at S phase at 2 uM after 24 hrs by propidium iodide staining based flow cytometry (reference value: 0.12 to 0.13%). It counts as functional.
In data set [15] the test system is HeLa. Briefly: Induction of cell cycle arrest in human HeLa cells assessed as accumulation at G2/M phase at 0.5 uM after 24 hrs by propidium iodide staining based flow cytometry (reference value: 0.35 to 0.37%). It is filed as functional.
In data set [16] the test system is HeLa. The experiment in a line: Induction of cell cycle arrest in human HeLa cells assessed as accumulation at G2/M phase at 1 uM after 24 hrs by propidium iodide staining based flow cytometry (reference value: 0.35 to 0.37%). It is filed as functional.
A further data set deals with Histone deacetylase 1 (Homo sapiens, UniProt Q13547). The experiment in a line: Inhibition of HDAC1 (unknown origin) using Boc-Lys(acetyl)-AMC as substrate preincubated for 5 mins followed by substrate addition by fluorescence assay.
The next data set has as its target Histone deacetylase 3 (Homo sapiens, UniProt O15379). Briefly: Inhibition of HDAC3 (unknown origin) using Boc-Lys(acetyl)-AMC as substrate preincubated for 5 mins followed by substrate addition by fluorescence assay.
The target in data set [17] is T1, Protein deacetylase HDAC6 (Homo sapiens) (UniProt Q9UBN7).
T1 sequence (whole entry): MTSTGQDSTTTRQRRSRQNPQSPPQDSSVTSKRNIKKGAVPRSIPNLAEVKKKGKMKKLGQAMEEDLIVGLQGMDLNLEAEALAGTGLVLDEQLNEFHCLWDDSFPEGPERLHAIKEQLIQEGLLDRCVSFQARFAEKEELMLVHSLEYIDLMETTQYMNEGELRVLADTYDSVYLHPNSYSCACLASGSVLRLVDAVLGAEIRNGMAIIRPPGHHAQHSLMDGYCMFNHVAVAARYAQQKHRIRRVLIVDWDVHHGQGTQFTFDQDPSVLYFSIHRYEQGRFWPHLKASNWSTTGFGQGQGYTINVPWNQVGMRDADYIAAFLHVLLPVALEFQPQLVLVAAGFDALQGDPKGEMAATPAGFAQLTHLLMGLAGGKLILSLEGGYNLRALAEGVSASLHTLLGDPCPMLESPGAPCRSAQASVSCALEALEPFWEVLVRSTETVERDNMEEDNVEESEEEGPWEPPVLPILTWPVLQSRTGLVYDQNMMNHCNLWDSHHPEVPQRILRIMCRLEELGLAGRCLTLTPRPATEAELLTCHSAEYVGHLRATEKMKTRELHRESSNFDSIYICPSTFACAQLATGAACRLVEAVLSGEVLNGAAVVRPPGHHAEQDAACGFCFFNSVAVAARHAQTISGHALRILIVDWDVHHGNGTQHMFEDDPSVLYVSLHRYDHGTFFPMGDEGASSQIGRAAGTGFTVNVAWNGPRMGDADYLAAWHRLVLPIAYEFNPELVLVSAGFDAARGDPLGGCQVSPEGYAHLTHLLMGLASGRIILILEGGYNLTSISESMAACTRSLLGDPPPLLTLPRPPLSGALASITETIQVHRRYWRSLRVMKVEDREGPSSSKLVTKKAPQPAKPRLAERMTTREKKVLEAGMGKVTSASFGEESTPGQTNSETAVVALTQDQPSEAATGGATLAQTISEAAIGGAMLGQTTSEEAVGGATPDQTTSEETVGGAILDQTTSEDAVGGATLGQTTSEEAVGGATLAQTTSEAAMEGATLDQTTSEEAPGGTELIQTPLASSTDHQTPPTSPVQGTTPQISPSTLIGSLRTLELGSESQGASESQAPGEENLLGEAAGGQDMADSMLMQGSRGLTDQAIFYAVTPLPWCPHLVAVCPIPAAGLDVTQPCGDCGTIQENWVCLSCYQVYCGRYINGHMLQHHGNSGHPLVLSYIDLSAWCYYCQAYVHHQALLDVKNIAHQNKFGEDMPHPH
The experiment in a line: Inhibition of HDAC6 in human A549 cells assessed as increase in acetylated tubulin expression at 5 uM incubated for 12 hrs by DAPI staining based immunofluorescence microscopy. It counts as cell-based.

The nature of data set [18]: Half life in artificial intestinal fluid. It is filed as ADME.
Data set [19] can be described thus: Half life in mouse plasma. It is filed as ADME, cell-free.

Histone deacetylase 3, sequence (O15379 whole entry): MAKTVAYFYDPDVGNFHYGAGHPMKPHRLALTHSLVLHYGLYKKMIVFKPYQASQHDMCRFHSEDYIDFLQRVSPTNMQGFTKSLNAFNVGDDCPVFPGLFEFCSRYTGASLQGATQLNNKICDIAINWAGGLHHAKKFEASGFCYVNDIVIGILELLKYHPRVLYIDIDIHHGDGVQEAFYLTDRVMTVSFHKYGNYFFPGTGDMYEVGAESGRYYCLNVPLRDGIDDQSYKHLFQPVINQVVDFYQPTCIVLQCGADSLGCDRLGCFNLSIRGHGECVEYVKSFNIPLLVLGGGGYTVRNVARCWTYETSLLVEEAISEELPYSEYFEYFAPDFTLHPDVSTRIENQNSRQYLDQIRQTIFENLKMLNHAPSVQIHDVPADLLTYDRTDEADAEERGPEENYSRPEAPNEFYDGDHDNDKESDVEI
Histone deacetylase 1, sequence (Q13547 whole entry): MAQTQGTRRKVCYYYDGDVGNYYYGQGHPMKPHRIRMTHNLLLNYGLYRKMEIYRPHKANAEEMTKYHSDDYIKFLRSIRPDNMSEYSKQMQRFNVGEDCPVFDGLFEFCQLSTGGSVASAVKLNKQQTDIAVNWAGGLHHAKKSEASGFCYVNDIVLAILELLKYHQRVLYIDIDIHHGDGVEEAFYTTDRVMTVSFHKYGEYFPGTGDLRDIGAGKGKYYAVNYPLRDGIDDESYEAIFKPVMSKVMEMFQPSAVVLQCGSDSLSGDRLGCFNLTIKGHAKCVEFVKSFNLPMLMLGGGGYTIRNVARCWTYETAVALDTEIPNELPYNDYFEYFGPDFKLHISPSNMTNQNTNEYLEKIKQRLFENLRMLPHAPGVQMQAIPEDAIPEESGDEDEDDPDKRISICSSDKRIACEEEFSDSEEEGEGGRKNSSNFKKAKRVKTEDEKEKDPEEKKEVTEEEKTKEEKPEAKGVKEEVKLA

One may read the IC50 as the midpoint of a concentration-inhibition curve. A word on the half-life: it is the time in which the quantity being followed falls by half. Higher therefore signals slow loss. As to `O=C(NO)c1ccc(CNc2nccc(-c3cccnc3)n2)cc1`, the half-maximal inhibitory concentration (IC50) amounted to 11.9 µM in the data set with A549; 30.7 µM in the data set with HeLa [1]; 7.23 µM in the data set on HeLa [2]; 3.17 µM in the data set on HeLa [3]; 4.03 µM with HepG2; 13.7 µM in data set [4]. Also, the half-maximal inhibitory concentration (IC50) came to 1.66 µM in data set [5], 46 µM in the data set with MCF7, 0.065 µM at Histone deacetylase 1 and 0.102 µM at Histone deacetylase 3. For the same compound, the viability at 1.25 µM in the data set with HeLa [6] worked out at 79.3%. For the same compound, the Activity with HeLa [7] amounted to 4.89%; in the data set on HeLa [8], 6.33%; in the data set on HeLa [10], 11.1%; with HeLa [11], 0.536%; with HeLa [12], 0.93%; with HeLa [13], 0.56%. Further, the Activity worked out at 0.03% with HeLa [14], 0.31% in the data set with HeLa [15] and 0.31% in the data set with HeLa [16]. Further, in the data set with HeLa [9], the viability at 5 µM stood at 76.7%. Besides, the inhibition result in [17] was “Active”. For the same compound, the half-life is greater than 24 h in data set [18] and 12 h in [19].

For the compound `O=C(/C=C/c1ccc(CNc2nccc(-c3cccnc3)n2)cc1)NO`, the IC50 in the data set on A549 turned out to be 8.32 µM; with HeLa [1], 53.4 µM; in the data set on HeLa [2], 3.79 µM; with HeLa [3], 3.24 µM; in the data set with HepG2, 5.95 µM; in data set [4] it was 8.28 µM. Also, the IC50 in data set [5] worked out at 1.05 µM; with MCF7, 46 µM; at Histone deacetylase 1, 0.082 µM; against Histone deacetylase 3 it was 0.113 µM. For the same compound, in the data set on HeLa [6], the viability at 1.25 µM amounted to 82.6%. The Activity with HeLa [7] was 4.27%; in the data set on HeLa [8], 6.59%; in the data set with HeLa [10] it was 10.2%; in the data set with HeLa [11], 0.858%; with HeLa [12] it was 0.87%; in the data set with HeLa [13], 0.58%. For the same compound, the Activity with HeLa [14] was 0.03%; in the data set on HeLa [15], 0.3%; in the data set on HeLa [16], 0.29%. The viability at 5 µM with HeLa [9] came out at 76.5%. For the same compound, the inhibition entry in data set [17] was “Active”. The results for the half-life in [18] and in [19] were greater than 24 h and 10 h, respectively.
